The data set concerns Hepatotoxicity. The data set is described as follows: Human drug-induced liver injury (DILI) modelling dataset from Ekins et al.

`Clc1ccccc1C(c1ccccc1)(c1ccccc1)n1ccnc1` [CLOTRIMAZOLE]: the Hepatotoxicity result is recorded as “DILI negative (training set)”.
As for `CO[C@@H]1[C@@H](OC(N)=O)[C@@H](O)[C@H](Oc2ccc3c(O)c(NC(=O)c4ccc(O)c(CC=C(C)C)c4)c(=O)oc3c2C)OC1(C)C` [NOVOBIOCIN], the Hepatotoxicity result was “DILI positive (training set)”.
Take `CC(=O)OCC[N+](C)(C)C.[Cl-]` [ACETYLCHOLINE CHLORIDE]: the Hepatotoxicity result (Liver) is listed as “DILI negative (training set)”.
On to `CC(C)Cc1ccc(CC(=O)O)cc1` [IBUFENAC], for which the Hepatotoxicity entry was “DILI positive (test set)”.
With `CCN(CC)CC(=O)Nc1c(C)cccc1C` [LIDOCAINE], the Hepatotoxicity entry (Liver) is “DILI negative (training set)”.
Regarding `NNCCc1ccccc1` [PHENELZINE], under “Liver”, the Hepatotoxicity entry is reported as “DILI negative (training set)”.
On to `COc1cc(C(=O)NS(=O)(=O)c2ccccc2C)ccc1Cc1cn(C)c2ccc(NC(=O)OC3CCCC3)cc12` [ZAFIRLUKAST], for which the Hepatotoxicity entry was “DILI positive (training set)”.
On to `Brc1ccccc1` [BROMOBENZENE], for which the Hepatotoxicity entry is reported as “DILI positive (test set)”.
Turning to `CC(COc1ccccc1)NC(C)C(O)c1ccc(O)cc1.Cl` (centres undefined) [ISOXSUPRINE HYDROCHLORIDE], the Hepatotoxicity result is listed as “DILI negative (training set)”.
With `Cc1c(C)c2c(c(C)c1O)CCC(C)(COc1ccc(CC3SC(=O)NC3=O)cc1)O2` (centres undefined) [TROGLITAZONE], the Hepatotoxicity entry is “DILI positive (test set)”.
Same read-out and setting: the same measure for `COc1cc(C(=O)NCc2ccc(OCCN(C)C)cc2)cc(OC)c1OC.Cl` [TRIMETHOBENZAMIDE HYDROCHLORIDE]: “DILI positive (test set)”; for `COC1=CC(=O)C[C@@H](C)[C@]12Oc1c(Cl)c(OC)cc(OC)c1C2=O` [GRISEOFULVIN]: “DILI positive (training set)”.
Regarding `Cc1nnc(NS(=O)(=O)c2ccc(N)cc2)s1` [SULFAMETHIZOLE], the Hepatotoxicity entry is listed as “DILI positive (test set)”.
On to `ClCCCl` [1,2-DICHLOROETHANE], for which the Hepatotoxicity result was “DILI positive (test set)”.
The same measure, in the same setting: the value for `C=C1CC[C@H](O)C/C1=C/C=C1\CCC[C@]2(C)[C@@H]([C@H](C)CCCC(C)(C)O)CC[C@@H]12.O` [CALCIFEDIOL] was “DILI positive (test set)”.
As for `CCN(CC)Cc1cc(Nc2ccnc3cc(Cl)ccc23)ccc1O.Cl.Cl.Cl`, the Hepatotoxicity entry (Liver) is reported as “DILI positive (test set)”.
For the compound `CN1CCN(C(c2ccccc2)c2ccccc2)CC1` [CYCLIZINE], the Hepatotoxicity entry is “DILI positive (test set)”.
The same measure, in the same setting: the value for `CCCCCOC(=O)c1ccccc1C(=O)OCCCCC` was “DILI positive (test set)”; that for `CC[C@@H](CO)NC(=O)[C@@H]1C=C2c3cccc4c3c(cn4C)C[C@H]2N(C)C1.O=C(O)/C=C\C(=O)O` [METHYSERGIDE MALEATE] was “DILI negative (training set)”.
As for `CN1CCCCC1CCN1c2ccccc2Sc2ccc([S+](C)[O-])cc21.O=S(=O)(O)c1ccccc1` (centres undefined) [MESORIDAZINE BESYLATE], under “Liver”, the Hepatotoxicity result was “DILI positive (training set)”.
Take `C[C@H]1C(=O)O[C@@H]2CCN3CC=C(COC(=O)[C@](C)(O)[C@]1(C)O)[C@H]23` [MONOCROTALINE]: the Hepatotoxicity entry was “DILI positive (training set)”.
On to `C#C[C@]1(O)CC[C@H]2[C@@H]3CCc4cc(O)ccc4[C@H]3CC[C@@]21C` [ETHINYL ESTRADIOL], for which the Hepatotoxicity entry is reported as “DILI positive (test set)”.
Same read-out and setting: the value for `CC1=C(C(=O)O)N2C(=O)[C@@H](NC(=O)[C@H](N)c3ccc(O)cc3)[C@H]2SC1` [CEFADROXIL] was “DILI positive (test set)”.
Consider `CN[C@H]1CC[C@@H](c2ccc(Cl)c(Cl)c2)c2ccccc21` [SERTRALINE], for which the Hepatotoxicity entry (Liver) is “DILI negative (training set)”.
Regarding `CC1(C)O[C@@H]2[C@@H](CO[C@@]3(COS(N)(=O)=O)OC(C)(C)O[C@@H]23)O1` [TOPIRAMATE], the Hepatotoxicity entry is “DILI negative (test set)”.
As to `COc1cc(N)c(Cl)cc1C(=O)NC1CCN(CCCOc2ccc(F)cc2)CC1OC` (centres undefined) [CISAPRIDE], the Hepatotoxicity result is “DILI negative (training set)”.
With `COc1cc2c(c(OC)c1OC)-c1ccc(OC)c(=O)cc1[C@@H](NC(C)=O)CC2` [COLCHICINE], the Hepatotoxicity entry was “DILI negative (training set)”.
With `CN(C)CCC(c1ccc(Cl)cc1)c1ccccn1.O=C(O)/C=C\C(=O)O` (centres undefined) [CHLORPHENIRAMINE MALEATE], the Hepatotoxicity entry is on record as “DILI positive (training set)”.
The same measure, in the same setting: the same measure for `Clc1ccc(COC(Cn2ccnc2)c2ccc(Cl)cc2Cl)cc1.O=[N+]([O-])O` (centres undefined) [ECONAZOLE NITRATE]: “DILI negative (test set)”; for `CCN(CC)C(=O)N1CCN(C)CC1` [DIETHYLCARBAMAZINE]: “DILI positive (training set)”; for `CC(=O)O[C@]1(C(C)=O)CC[C@H]2[C@@H]3C[C@H](C)C4=CC(=O)CC[C@]4(C)[C@H]3CC[C@@]21C` [MEDROXYPROGESTERONE ACETATE]: “DILI negative (training set)”.
In the case of `CCOc1nc2cccc(C(=O)O)c2n1Cc1ccc(-c2ccccc2-c2nnn[nH]2)cc1`, the Hepatotoxicity entry is reported as “DILI negative (test set)”.
Same read-out and setting: the same measure for `CN1C(=O)OC(C)(C)C1=O` [TRIMETHADIONE]: “DILI positive (training set)”.
For `CCN(CC)C(=O)/C(C#N)=C/c1cc(O)c(O)c([N+](=O)[O-])c1` [ENTACAPONE], the Hepatotoxicity entry was “DILI negative (test set)”.
For the compound `COC(=O)C1=C(C)NC(C)=C(C(=O)OCCN(C)Cc2ccccc2)C1c1cccc([N+](=O)[O-])c1.Cl` (centres undefined) [NICARDIPINE HYDROCHLORIDE], the Hepatotoxicity entry is reported as “DILI positive (training set)”.
Take `C[C@@H]1C[C@H]2[C@@H]3CCC4=CC(=O)C=C[C@]4(C)[C@@]3(F)[C@@H](O)C[C@]2(C)[C@@]1(O)C(=O)CO` [DEXAMETHASONE]: the Hepatotoxicity entry is recorded as “DILI negative (training set)”.
Same read-out and setting: the value for `CC[C@H]1OC(=O)[C@H](C)[C@@H](O[C@H]2C[C@@](C)(OC)[C@@H](O)[C@H](C)O2)[C@H](C)[C@@H](O[C@@H]2O[C@H](C)C[C@H](N(C)C)[C@H]2O)[C@](C)(OC)C[C@@H](C)C(=O)[C@H](C)[C@@H](O)[C@]1(C)O` [CLARITHROMYCIN] was “DILI positive (test set)”; that for `CN(C)CCCN1c2ccccc2Sc2ccccc21.Cl` [PROMAZINE HYDROCHLORIDE] was “DILI negative (training set)”.
As for `NC(CO)(CO)CO` [TROMETHAMINE], the Hepatotoxicity result (Liver) is recorded as “DILI negative (test set)”.
As for `COC(=O)C(c1ccccc1)C1CCCCN1` (centres undefined) [METHYLPHENIDATE], the Hepatotoxicity result is reported as “DILI positive (test set)”.
Regarding `S=C=Nc1ccc2ccccc2c1`, the Hepatotoxicity entry is recorded as “DILI negative (test set)”.
As for `CC1(C)S[C@@H]2[C@H](NC(=O)[C@H](NC(=O)N3CCNC3=O)c3ccccc3)C(=O)N2[C@H]1C(=O)[O-].[Na+]` [AZLOCILLIN SODIUM], the Hepatotoxicity entry is given as “DILI negative (test set)”.
With `N=C(N)NCCN1CCCCCCC1.N=C(N)NCCN1CCCCCCC1.O=S(=O)(O)O` [GUANETHIDINE SULFATE], the Hepatotoxicity entry is recorded as “DILI positive (test set)”.
As for `CCC1(c2ccc(N)cc2)CCC(=O)NC1=O` (centres undefined) [AMINOGLUTETHIMIDE], the Hepatotoxicity result is given as “DILI negative (training set)”.
For `COCCOC(=O)C1=C(C)NC(C)=C(C(=O)OC(C)C)C1c1cccc([N+](=O)[O-])c1` (centres undefined) [NIMODIPINE], the Hepatotoxicity entry was “DILI positive (training set)”.
For the compound AUROTHIOLAMATE, the Hepatotoxicity entry is listed as “DILI positive (test set)”.
On the same count and under the same terms, the value for `CC(CCc1ccccc1)NCC(O)c1ccc(O)c(C(N)=O)c1` (centres undefined) [LABETALOL] was “DILI positive (training set)”.
For `CC(=O)CC(c1ccccc1)c1c(O)c2ccccc2oc1=O` (centres undefined) [WARFARIN], the Hepatotoxicity result is “DILI negative (training set)”.
Take `COC(=O)C1=C(C)NC(C)=C(C(=O)OC)C1c1ccccc1[N+](=O)[O-]` [NIFEDIPINE]: the Hepatotoxicity entry was “DILI positive (training set)”.
As to `CC[C@H]1OC(=O)[C@H](C)[C@@H](O[C@H]2C[C@@](C)(OC)[C@@H](O)[C@H](C)O2)[C@H](C)[C@@H](O[C@@H]2O[C@H](C)C[C@H](N(C)C)[C@H]2O)[C@](C)(O)C[C@@H](C)CN(C)[C@H](C)[C@@H](O)[C@]1(C)O` [AZITHROMYCIN], the Hepatotoxicity entry is reported as “DILI negative (test set)”.
For `Cc1ccc(Cl)c(Nc2ccccc2C(=O)[O-])c1Cl.O.[Na+]` [MECLOFENAMATE SODIUM], the Hepatotoxicity result is “DILI positive (training set)”.
Take `CO/N=C(/C(=O)N[C@@H]1C(=O)N2C(C(=O)[O-])=C(CSc3nc(=O)c(O)nn3C)CS[C@H]12)c1csc(N)n1.[Na+]`: the Hepatotoxicity entry was “DILI positive (test set)”.
On to `O=[As][As+](=O)[O-]` (centres undefined) [ARSENIC TRIOXIDE], for which the Hepatotoxicity result is “DILI positive (test set)”.
On the same count and under the same terms, the value for `CC(=O)O.O=C(NCC1CCCCN1)c1cc(OCC(F)(F)F)ccc1OCC(F)(F)F` (centres undefined) [FLECAINIDE ACETATE] was “DILI positive (training set)”.
As to `CC[C@@H](CO)NC(=O)[C@@H]1C=C2c3cccc4[nH]cc(c34)C[C@H]2N(C)C1.O=C(O)/C=C\C(=O)O` [METHYLERGONOVINE MALEATE], the Hepatotoxicity result was “DILI negative (training set)”.
Take `Cc1onc(-c2c(Cl)cccc2Cl)c1C(=O)N[C@@H]1C(=O)N2[C@@H]1SC(C)(C)[C@@H]2C(=O)[O-].O.[Na+]` [DICLOXACILLIN SODIUM]: the Hepatotoxicity result was “DILI positive (test set)”.
On to `Cl.O=c1n(CCCN2CCN(c3cccc(Cl)c3)CC2)nc2ccccn12` [TRAZODONE HYDROCHLORIDE], for which the Hepatotoxicity result is on record as “DILI positive (training set)”.
For `CN(CCOc1ccc(CC2SC(=O)NC2=O)cc1)c1ccccn1` (centres undefined) [ROSIGLITAZONE], the Hepatotoxicity result is “DILI negative (test set)”.
On the same count and under the same terms, the value for `Cc1cc(C(C)(C)C)c(O)c(C(C)(C)C)c1` [BUTYLATED HYDROXYTOLUENE] was “DILI positive (test set)”.
